Measured values published in ChEMBL document CHEMBL1201862, “PubChem BioAssay data set” (2004).
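Test compounds were applied to cells in 96-well plates for 48 hours at 5 doses. GI50 marks 50% less growth.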 Active and inactive are the calls of the source. Rule as the data show it: active = GI50 up to about 1.1 µM and inactive = higher.

Key:
Test in all cases: NCI-60 cell line screen, 48 h
SK-OV-3 = system: SK-OV-3
XF498 = system: XF498
HCT-116 = system: HCT-116
M19-MEL = system: M19-MEL
UO-31 = system: UO-31
DMS-273 = system: DMS-273
HOP-92 = system: HOP-92
MOLT-4 = system: MOLT-4
OVCAR-4 = system: OVCAR-4
DMS-114 = system: DMS-114
A498 = system: A498
IGROV-1 = system: IGROV-1
NCI/ADR-RES = system: NCI/ADR-RES
LOX IMVI = system: LOX IMVI
COLO 205 = system: COLO 205
HCT-15 = system: HCT-15
KM-20L2 = system: KM-20L2
RPMI-8226 = system: RPMI-8226
NCI-H226 = system: NCI-H226
HT-29 = system: HT-29
NCI-H522 = system: NCI-H522
SF-295 = system: SF-295
HOP-18 = system: HOP-18
Malme-3M = system: Malme-3M
CCRF-CEM = system: CCRF-CEM
NCI-H460 = system: NCI-H460
NCI-H23 = system: NCI-H23
SK-MEL-28 = system: SK-MEL-28
SNB-75 = system: SNB-75
K562 = system: K562
SW-620 = system: SW-620
MCF7 = system: MCF7
SNB-19 = system: SNB-19
DLD-1 = system: DLD-1
UACC-62 = system: UACC-62
SK-MEL-5 = system: SK-MEL-5
SF-268 = system: SF-268
A549 = system: A549
UACC-257 = system: UACC-257
KM12 = system: KM12
SN12C = system: SN12C
HL-60 = system: HL-60
SK-MEL-2 = system: SK-MEL-2
OVCAR-5 = system: OVCAR-5
HCC 2998 = system: HCC 2998
OVCAR-3 = system: OVCAR-3
SNB-78 = system: SNB-78
CAKI-1 = system: CAKI-1
SF-539 = system: SF-539
EKVX = system: EKVX
HOP-62 = system: HOP-62
U-251 = system: U-251
OVCAR-8 = system: OVCAR-8
RXF 393 = system: RXF 393
786-0 = system: 786-0
ACHN = system: ACHN
SR = system: SR
LXFL 529 = system: LXFL 529
M14 = system: M14
TK-10 = system: TK-10

`CC(=O)C(=Cc1cn(C)c(=O)n(C)c1=O)C(C)=O` was tested, and the GI50 (SK-OV-3) was 99.8 µM (inactive), the GI50 (XF498) was 37.8 µM (inactive) and the GI50 (HCT-116) was 87.5 µM (inactive). For the same compound, the GI50 (M19-MEL) was 109 µM (inactive), the GI50 (UO-31) was 83.8 µM (inactive) and the GI50 (DMS-273) was 98.6 µM (inactive). For the same compound, the GI50 (HOP-92) was 2.62 µM (inactive), the GI50 (MOLT-4) was 119 µM (inactive) and the GI50 (OVCAR-4) was 105 µM (inactive). For the same compound, the GI50 (DMS-114) was 88.9 µM (inactive), the GI50 (A498) was 101 µM (inactive) and the GI50 (IGROV-1) was 150 µM (inactive). The GI50 (NCI/ADR-RES) was 93.1 µM (inactive), the GI50 (LOX IMVI) was 71.1 µM (inactive) and the GI50 (COLO 205) was 80.9 µM (inactive). For the same compound, the GI50 (HCT-15) was 94 µM, the GI50 (KM-20L2) was 85.7 µM (inactive) and the GI50 (RPMI-8226) was 89.9 µM (inactive). The GI50 (NCI-H226) was 116 µM (inactive), the GI50 (HT-29) was 113 µM (inactive) and the GI50 (NCI-H522) was 16.8 µM (inactive). The GI50 (SF-295) was 107 µM (inactive), the GI50 (HOP-18) was 160 µM (inactive) and the GI50 (Malme-3M) was 83 µM (inactive). The GI50 (CCRF-CEM) was 49.4 µM (inactive), the GI50 (NCI-H460) was 92.3 µM (inactive) and the GI50 (NCI-H23) was 69.5 µM (inactive). For the same compound, the GI50 (SK-MEL-28) was 100 µM (inactive), the GI50 (SNB-75) was 65 µM (inactive) and the GI50 (K562) was 138 µM (inactive). The GI50 (SW-620) was 106 µM (inactive), the GI50 (MCF7) was 159 µM (inactive) and the GI50 (SNB-19) was 125 µM (inactive). The GI50 (DLD-1) was 94.8 µM (inactive), the GI50 (UACC-62) was 75.9 µM (inactive) and the GI50 (SK-MEL-5) was 86.9 µM (inactive). For the same compound, the GI50 (SF-268) was 148 µM (inactive), the GI50 (A549) was 157 µM (inactive) and the GI50 (UACC-257) was 85.9 µM (inactive). The GI50 (KM12) was 85.1 µM (inactive), the GI50 (SN12C) was 99.1 µM (inactive) and the GI50 (HL-60) was 84.3 µM (inactive). The GI50 (SK-MEL-2) was 106 µM (inactive), the GI50 (OVCAR-5) was 97.7 µM (inactive) and the GI50 (HCC 2998) was 122 µM (inactive). The GI50 (OVCAR-3) was 116 µM (inactive), the GI50 (SNB-78) was 214 µM (inactive) and the GI50 (CAKI-1) was 83 µM (inactive). The GI50 (SF-539) was 103 µM (inactive), the GI50 (EKVX) was 121 µM (inactive) and the GI50 (HOP-62) was 137 µM (inactive). For the same compound, the GI50 (U-251) was > 96.8 µM (inactive), the GI50 (OVCAR-8) was 126 µM (inactive) and the GI50 (RXF 393) was 60.1 µM (inactive).

With `COC1/C(=C\c2ccccc2I)c2ccccc2N1C(C)=O` (stereo unspecified) the GI50 (HCT-116) was 13.8 µM (inactive), the GI50 (M19-MEL) was 19.6 µM (inactive) and the GI50 (UO-31) was 2.48 µM (inactive). For the same compound, the GI50 (DMS-273) was 11.7 µM (inactive), the GI50 (HOP-92) was 2.2 µM (inactive) and the GI50 (MOLT-4) was 14.1 µM (inactive). The GI50 (OVCAR-4) was 16.2 µM (inactive), the GI50 (DMS-114) was 17 µM (inactive) and the GI50 (A498) was 15.8 µM (inactive). For the same compound, the GI50 (IGROV-1) was 18.1 µM (inactive), the GI50 (786-0) was 18.1 µM (inactive) and the GI50 (COLO 205) was 17.6 µM (inactive). For the same compound, the GI50 (HCT-15) was 14.2 µM, the GI50 (KM-20L2) was 15.7 µM (inactive) and the GI50 (RPMI-8226) was 8.87 µM (inactive). For the same compound, the GI50 (HT-29) was 15.6 µM (inactive), the GI50 (SF-295) was 14.3 µM (inactive) and the GI50 (ACHN) was 19.5 µM (inactive). The GI50 (HOP-18) was 19 µM (inactive), the GI50 (CCRF-CEM) was 17 µM (inactive) and the GI50 (NCI-H460) was 17.6 µM (inactive). For the same compound, the GI50 (NCI-H23) was 15.7 µM (inactive), the GI50 (SK-MEL-28) was 17.3 µM (inactive) and the GI50 (SNB-75) was 14.3 µM (inactive). For the same compound, the GI50 (K562) was 15.6 µM (inactive), the GI50 (SW-620) was 20.6 µM (inactive) and the GI50 (SNB-19) was 22.6 µM (inactive). The GI50 (DLD-1) was 15.5 µM (inactive), the GI50 (UACC-62) was 13 µM (inactive) and the GI50 (A549) was 16 µM (inactive). The GI50 (SR) was 14.4 µM (inactive), the GI50 (UACC-257) was 18.3 µM (inactive) and the GI50 (KM12) was 15.6 µM (inactive). For the same compound, the GI50 (SN12C) was 15.2 µM (inactive), the GI50 (HL-60) was 3.46 µM (inactive) and the GI50 (SK-MEL-2) was 17.5 µM (inactive). For the same compound, the GI50 (HCC 2998) was 16 µM (inactive), the GI50 (OVCAR-3) was 16.6 µM (inactive) and the GI50 (SNB-78) was 25.2 µM (inactive). For the same compound, the GI50 (CAKI-1) was 17.1 µM (inactive), the GI50 (SF-539) was 16.4 µM (inactive) and the GI50 (EKVX) was 15.1 µM (inactive). For the same compound, the GI50 (HOP-62) was 17.2 µM (inactive), the GI50 (U-251) was 18.6 µM (inactive) and the GI50 (OVCAR-8) was 30 µM (inactive). The GI50 (RXF 393) was 5.69 µM (inactive) and the GI50 (LXFL 529) was 12.9 µM (inactive).

`C=C1c2ccccc2N(S(=O)(=O)c2ccc(C)cc2)C12CCCCC2` was tested, and the GI50 (SK-OV-3) was > 100 µM (inactive), the GI50 (XF498) was > 100 µM (inactive) and the GI50 (HCT-116) was 33 µM (inactive). The GI50 (M19-MEL) was 47.1 µM (inactive), the GI50 (UO-31) was > 100 µM (inactive) and the GI50 (DMS-273) was 45 µM (inactive). The GI50 (HOP-92) was 4.27 µM (inactive), the GI50 (MOLT-4) was 30.4 µM (inactive) and the GI50 (OVCAR-4) was 53.1 µM (inactive). The GI50 (DMS-114) was 18.9 µM (inactive), the GI50 (IGROV-1) was > 100 µM (inactive) and the GI50 (786-0) was > 100 µM (inactive). For the same compound, the GI50 (LOX IMVI) was 36.6 µM (inactive), the GI50 (COLO 205) was 43.5 µM (inactive) and the GI50 (HCT-15) was > 100 µM. For the same compound, the GI50 (KM-20L2) was > 100 µM (inactive), the GI50 (RPMI-8226) was 24.4 µM (inactive) and the GI50 (NCI-H226) was 53.2 µM (inactive). For the same compound, the GI50 (HT-29) was 52.4 µM (inactive), the GI50 (NCI-H522) was 34.8 µM (inactive) and the GI50 (SF-295) was 74.5 µM (inactive). The GI50 (ACHN) was 57.4 µM (inactive), the GI50 (M14) was 94.4 µM (inactive) and the GI50 (HOP-18) was > 100 µM (inactive). For the same compound, the GI50 (Malme-3M) was 34.8 µM (inactive), the GI50 (CCRF-CEM) was 25.2 µM (inactive) and the GI50 (NCI-H460) was 86.7 µM (inactive). The GI50 (NCI-H23) was 25.3 µM (inactive), the GI50 (SK-MEL-28) was 45.2 µM (inactive) and the GI50 (SNB-75) was 50.9 µM (inactive). For the same compound, the GI50 (K562) was 29 µM (inactive), the GI50 (SW-620) was 59.3 µM (inactive) and the GI50 (SNB-19) was > 100 µM (inactive). For the same compound, the GI50 (DLD-1) was > 100 µM (inactive), the GI50 (UACC-62) was 62.2 µM (inactive) and the GI50 (SK-MEL-5) was 30.8 µM (inactive). The GI50 (SF-268) was 63 µM (inactive), the GI50 (TK-10) was > 100 µM (inactive) and the GI50 (A549) was 63.4 µM (inactive). The GI50 (SR) was 13.1 µM (inactive), the GI50 (UACC-257) was 36 µM (inactive) and the GI50 (KM12) was 38.5 µM (inactive). The GI50 (SN12C) was > 100 µM (inactive), the GI50 (HL-60) was 19.8 µM (inactive) and the GI50 (SK-MEL-2) was 52.6 µM (inactive). For the same compound, the GI50 (OVCAR-5) was > 100 µM (inactive), the GI50 (HCC 2998) was > 100 µM (inactive) and the GI50 (OVCAR-3) was 77.6 µM (inactive). The GI50 (SF-539) was > 100 µM (inactive), the GI50 (EKVX) was > 100 µM (inactive) and the GI50 (HOP-62) was > 100 µM (inactive). For the same compound, the GI50 (U-251) was 94.6 µM (inactive), the GI50 (OVCAR-8) was > 100 µM (inactive) and the GI50 (RXF 393) was 45.6 µM (inactive). The GI50 (LXFL 529) was 37.2 µM (inactive).
